Experimental data published in patent publication US11505523B2, “HDAC8 inhibitors for treating cancer” (City of Hope, priority 2013, dated 2022).

Key:
HDAC2 = HDAC2 (Homo sapiens (Human), UniProt Q92769); assay: Inhibition of purified HDAC2; conditions: read-out: HDAC 2 IC50; class I
HDAC1 = HDAC1 (Homo sapiens (Human), UniProt Q13547); assay: Inhibition of purified HDAC1; assay type: biochemical; conditions: class I; read-out: HDAC 1 IC50
OCI-AML3 cells = assay: Survival/apoptosis of OCI-AML3 AML cells by Annexin V labeling; assay type: cell-based, human
H1299 cells = assay: Cytotoxicity / anti-proliferative activity in H1299 lung cancer cells
Cl1-1 cells = assay: Cytotoxicity / anti-proliferative activity in CL1-1 lung cancer cells; conditions: read-out: Cytotoxicity IC50 Cl1-1; mean SD of three determinations

HDAC2, sequence (Q92769 whole entry, species assumed): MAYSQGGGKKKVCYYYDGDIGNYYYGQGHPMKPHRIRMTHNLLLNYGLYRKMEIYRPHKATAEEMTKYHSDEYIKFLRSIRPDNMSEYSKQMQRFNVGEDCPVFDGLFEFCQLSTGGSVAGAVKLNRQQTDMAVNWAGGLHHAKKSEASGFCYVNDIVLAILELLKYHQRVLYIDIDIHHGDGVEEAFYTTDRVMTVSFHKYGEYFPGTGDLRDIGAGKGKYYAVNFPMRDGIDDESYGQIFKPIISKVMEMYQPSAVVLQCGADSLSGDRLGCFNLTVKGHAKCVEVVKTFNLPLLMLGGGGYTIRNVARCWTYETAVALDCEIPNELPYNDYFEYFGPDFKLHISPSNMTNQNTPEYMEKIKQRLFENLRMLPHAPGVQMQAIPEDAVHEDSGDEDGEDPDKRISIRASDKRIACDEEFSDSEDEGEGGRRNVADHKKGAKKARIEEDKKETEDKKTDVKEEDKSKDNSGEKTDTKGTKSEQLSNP
HDAC1, sequence (Q13547 whole entry, species assumed): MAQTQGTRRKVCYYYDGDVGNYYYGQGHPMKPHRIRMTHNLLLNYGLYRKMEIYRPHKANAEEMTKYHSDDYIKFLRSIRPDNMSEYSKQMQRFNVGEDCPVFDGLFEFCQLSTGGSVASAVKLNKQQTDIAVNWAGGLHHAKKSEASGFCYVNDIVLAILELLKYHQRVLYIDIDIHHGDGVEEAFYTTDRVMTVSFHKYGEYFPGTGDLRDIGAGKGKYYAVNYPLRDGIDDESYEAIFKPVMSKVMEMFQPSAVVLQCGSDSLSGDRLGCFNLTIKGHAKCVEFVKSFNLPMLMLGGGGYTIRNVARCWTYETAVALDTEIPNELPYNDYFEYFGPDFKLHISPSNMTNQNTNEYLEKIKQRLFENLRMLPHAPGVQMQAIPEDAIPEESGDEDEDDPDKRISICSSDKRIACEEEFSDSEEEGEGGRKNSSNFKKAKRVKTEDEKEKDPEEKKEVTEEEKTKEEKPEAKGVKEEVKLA

SMILES: COc1ccc(/C=C/C(=O)NO)c(-c2ccc(-c3ccccc3)cc2)c1 [Compound 22d, (E)-N-Hydroxy-4-methoxy-2-(biphenyl-4-yl)cinnamide]
- IC50 (HDAC2): > 20 nM
- IC50 (HDAC1): 3 ± 0.2 nM
- IC50 (OCI-AML3 cells; 48-hr, Annexin V labeling, read-out: OCI-AML3 Apoptosis IC50): 8120 nM
- survival of OCI-AML3 cells (OCI-AML3 cells; 48 h, result in words): decreases with increased HDAC8i concentration
- IC50 (H1299 cells; read-out: Cytotoxicity IC50 H1299, mean SD of three determinations): 7.2 ± 0.7 nM
- anti-proliferative effects in H1299 cells (H1299 cells; result in words): moderate anti-proliferative effects
- IC50 (Cl1-1 cells): > 10 nM
